One assay has as its target T1, 15-PGDH/HPGD (Homo sapiens, UniProt P15428).
T1 construct: purchased R&D System 5660-DH
T1 sequence (P15428 1-266): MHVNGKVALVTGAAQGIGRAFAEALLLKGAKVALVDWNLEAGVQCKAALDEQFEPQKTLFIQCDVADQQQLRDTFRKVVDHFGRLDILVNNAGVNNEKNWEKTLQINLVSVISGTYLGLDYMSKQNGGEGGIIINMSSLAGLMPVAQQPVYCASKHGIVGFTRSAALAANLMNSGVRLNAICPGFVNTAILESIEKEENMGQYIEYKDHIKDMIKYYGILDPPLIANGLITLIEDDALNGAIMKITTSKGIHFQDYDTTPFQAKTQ
The experiment in a line: hPGDH inhibitor screening biochemical assay. The conditions noted are these: 10 nM enzyme, 15 μM PGE2, 0.25 mM NAD, fluorescence ex/em 340/485 nm. How it is done: A hydroxyprostaglandin dehydrogenase inhibition screening biochemical assay can be performed to assess the synthesized inhibitors provided herein. Provided herein is an exemplary biochemical assay for hPGDH inhibitor screening.
The in vitro biochemical assay can be performed in white, 384 plates in total 20 μl reaction volume consisting of 10 nM of 15-PGDH/HPGD (R&D System #5660-DH), 15 μM Prostaglandin E2 (Sigma, Cat #P5640-10MG) and 0.25 mM β-Nicotinamide adenine dinucleotide sodium salt (Sigma, Cat #N0632-5G) made in reaction buffer (50 mM Tris-HCl, pH 7.5, 0.01% Tween 20) at 10-point dose response curve for test/tool compounds. Briefly, 5 μl (4×) of compounds solution and 5 μl (final concentration, 10 nM) of enzyme solution is added to white 384 well plates and incubated for 10 mins at 37° C. 5 μl (4×) of Prostaglandin E2 and 5 μl (4×) of β-Nicotinamide adenine dinucleotide sodium salt is added to the wells and incubated for 10 mins at room temperature. Fluorescence is recorded at ex/em=340 nm/485 nm. The percentage ([…]) inhibition of enzyme activity was determined relative to positive control (1% DMSO) and IC50 was calculated using GraphPad prism software (four parameter-variable slope equation).

Another assay deals with T2, 15-PGDH (Homo sapiens, UniProt P15428).
T2 construct: endogenous in cells; host or cells: A549 human lung adenocarcinoma cells
T2 sequence (P15428 1-266): T1 sequence (P15428 1-266)
The assay can be described thus: A549 cell based assay: PGE2 in supernatant (HTRF), fold induction over IL-1β. Conditions: A549 cells; for fold induction at 0.001 µM: compound 0.001 μM plus IL-1β versus IL-1β only, read-out: PGE2-HTRF over IL1-β: Fold induction at 0.001 μM; for fold induction at 0.01 µM: compound 0.01 μM plus IL-1β versus IL-1β only, read-out: PGE2-HTRF over IL1-β: Fold induction at 0.01 μM; for fold induction at 0.1 µM: compound 0.1 μM plus IL-1β versus IL-1β only, read-out: PGE2-HTRF over IL1-β: Fold induction at 0.1 μM; for fold induction at 1 µM: compound 1 μM plus IL-1β versus IL-1β only, read-out: PGE2-HTRF over IL1-β: Fold induction at 1 μM. On the procedure:
Cell Based Assay: 15-PGDH is highly expressed in resting human lung adenocarcinoma cells (A549) (Tong et al., 2006), and this cell line was used to assess 15-PGDH inhibition by MF-300Na in vitro.
In this assay, A549 cells are treated with interleukin (IL) 1β, which induces the expression of cycloxygenase-2 and the synthesis of PGE2 (Tong et al., 2006). In the studies evaluating test articles, thirty thousand A549 cells were seeded in 100 μL F12K completed media and incubated for 24 hours at 37° C. with 5% CO2 before being serum-starved for 24 hours. On the day of the experiment, buffer was changed to complete medium, and cells were incubated for 30 minutes with compounds prior to the addition of IL-1β (final concentration of 0.1-0.25 ng/mL) overnight at 37° C. with 5% CO2. Each concentration was run in triplicate. […] The PGE2 in the supernatant was detected and quantified using a Cisbio HTRF technology (Homogeneous Time-Resolved Fluorescence) kit (62P2APEG-62P2APEH) according to the manufacturer's recommendations, quantifying the fold induction of PGE2 of cells treated with IL-1b plus test article, versus treatment with IL-1b only.
(In general: Time-resolved FRET reads energy transfer from a long-lived donor to a nearby acceptor.)

Molecules are shown by their SMILES. pIC50: −log10 of the molar value.

The pIC50 is the negative decadic logarithm of the IC50, by convention in mol/L. Take `O=C(c1cnc2c(cnn2-c2ccc(-c3ncn[nH]3)cc2)c1)N1CCC(F)(F)CC1` [Compound C-6]: the pIC50 on 15-PGDH/HPGD is over 7.00. For the same compound, at 15-PGDH, the fold induction at 0.001 µM worked out at 0.98, the fold induction at 0.01 µM is 2.14, the fold induction at 0.1 µM was determined as 5.31 and the fold induction at 1 µM stood at 4.88.

On to `C[C@H]1CCCN(C(=O)c2cnc3c(c2)nnn3-c2ccc(-c3nnc[nH]3)cc2)C1` [Compound C-19], for which the pIC50 against 15-PGDH/HPGD is over 7.00. Besides, on 15-PGDH, the fold induction at 0.001 µM is 1.11, the fold induction at 0.01 µM came out at 1.81, the fold induction at 0.1 µM is 3.61 and the fold induction at 1 µM amounted to 4.5.

`C[C@H]1CCCN(C(=O)c2cnc3c(cnn3-c3ccc(N4CCOC4=O)nc3)c2)C1` [Compound C-25] showed a pIC50 against 15-PGDH/HPGD of over 7.00. Besides, on 15-PGDH, the fold induction at 0.001 µM is 2.08, the fold induction at 0.01 µM worked out at 3.56, the fold induction at 0.1 µM turned out to be 4.84 and the fold induction at 1 µM turned out to be 6.39.

As for `C[C@H]1CCCN(C(=O)c2cnc3c(cnn3-c3ccc(N4CCOCC4)nc3)c2)C1` [Compound C-26], on 15-PGDH, the fold induction at 0.001 µM is 1.05, the fold induction at 0.01 µM came to 1.31, the fold induction at 0.1 µM is 1.8 and the fold induction at 1 µM came to 3.45.

Compound `C[C@H]1CCCN(C(=O)c2cnc3c(cnn3-c3ccc4nc(N)nn4c3)c2)C1` [Compound C-27] showed a pIC50 on 15-PGDH/HPGD of over 7.00. Also, on 15-PGDH, the fold induction at 0.001 µM came out at 1.04, the fold induction at 0.01 µM turned out to be 2.06, the fold induction at 0.1 µM was found to be 3.36 and the fold induction at 1 µM came out at 4.68.

`O=C(c1cnc2c(cnn2-c2cncc(N3CCOCC3)c2)c1)N1CCC(F)(F)CC1` [Compound C-28]: at 15-PGDH, the fold induction at 0.001 µM stood at 1.04, the fold induction at 0.01 µM came out at 0.76, the fold induction at 0.1 µM is 2.06 and the fold induction at 1 µM amounted to 3.61.

On to `Cc1nc(-c2ccc(-n3nnc4cc(C(=O)N5CCC[C@H](C)C5)cnc43)cc2)no1` [Compound C-29], for which, at 15-PGDH, the fold induction at 0.001 µM came out at 3.78, the fold induction at 0.01 µM is 4.08, the fold induction at 0.1 µM was 6.4 and the fold induction at 1 µM was found to be 4.88.

Regarding `CCOc1ccc(-n2nnc3cc(C(=O)N4CCC[C@H](C)C4)cnc32)cc1` [Compound C-30], at 15-PGDH, the fold induction at 0.001 µM came out at 1.16, the fold induction at 0.01 µM was 1.68, the fold induction at 0.1 µM was found to be 2.5 and the fold induction at 1 µM came to 3.79.

On 15-PGDH/HPGD, `C[C@H]1CCCN(C(=O)c2cnc3c(cnn3-c3ccc(N4CCNC4=O)nc3)c2)C1` [Compound C-57] showed a pIC50 of over 7.00. In addition, on 15-PGDH, the fold induction at 0.001 µM stood at 4.07, the fold induction at 0.01 µM stood at 4.94, the fold induction at 0.1 µM was 4.94 and the fold induction at 1 µM turned out to be 4.86.

`O=C(c1cnc2c(cnn2-c2ccc(-c3nnc[nH]3)cc2)c1)N1CCCC(F)(F)C1` [Compound C-59]: on 15-PGDH, the fold induction at 0.001 µM is 0.91, the fold induction at 0.01 µM worked out at 3.09, the fold induction at 0.1 µM was found to be 4.74 and the fold induction at 1 µM worked out at 4.32.

Compound `COc1cc(-n2ncc3cc(C(=O)N4CCC(F)(F)CC4)cnc32)ccc1-c1nnc[nH]1` [Compound C-74] had a pIC50 against 15-PGDH/HPGD of over 7.00.

As to `CCOC(=O)Nc1cncc(-n2ncc3cc([S+]([O-])CC4CC4)cnc32)c1` (centres unmarked) [Compound C-90], the pIC50 at 15-PGDH/HPGD was 6.00 to 7.00.

As for `CCCC[S+]([O-])c1cnc2c(cnn2-c2cccc(-c3nnc[nH]3)c2)c1` (centres unmarked) [Compound C-92], the pIC50 at 15-PGDH/HPGD was 6.00 to 7.00.

Consider `CCCC[S+]([O-])c1cnc2c(cnn2-c2ccc(-c3nnc[nH]3)cc2)c1` (centres unmarked) [Compound C-93], for which the pIC50 on 15-PGDH/HPGD was 6.00 to 7.00.

In turn, `CCCC[S+]([O-])c1cnc2c(cnn2-c2cncc(NC(=O)OCC)c2)c1` (centres unmarked) [Compound C-94] had a pIC50 on 15-PGDH/HPGD of 6.00 to 7.00.

`[O-][S+](CC1CC1)c1cnc2c(cnn2-c2ccc(-c3nnc[nH]3)cc2)c1` (centres unmarked) [Compound C-95] gave a pIC50 at 15-PGDH/HPGD of 6.00 to 7.00.

Take `COCC(=O)Nc1cncc(-n2ncc3cc([S+]([O-])C4CCC(F)(F)CC4)cnc32)c1` (centres unmarked) [Compound C-124]: at 15-PGDH/HPGD, the pIC50 was over 7.00.

`O=C(O)c1ccc(-c2cnc3cc(C(=O)N4CCC(F)(F)CC4)ccn23)cc1` [Compound D-1, 4-(7-(4,4-difluoropiperidine-1-carbonyl)imidazo[1,2-a]pyridin-3-yl)benzoic acid]: at 15-PGDH/HPGD, the pIC50 is over 7.00.

In turn, `O=C(O)c1ccc(-c2cnc3cc(C(=O)N4CCC(F)(F)CC4)ccn23)cn1` [Compound D-2, 5-(7-(4,4-difluoropiperidine-1-carbonyl)imidazo[1,2-a]pyridin-3-yl)picolinic acid] showed a pIC50 on 15-PGDH/HPGD of 6.00 to 7.00.

In the case of `O=C(c1ccn2c(-c3ccc(-c4ncn[nH]4)nc3)cnc2c1)N1CCC(F)(F)CC1` [Compound D-3, (3-(6-(1H-1,2,4-triazol-5-yl)pyridin-3-yl)imidazo[1,2-a]pyridin-7-yl)(4,4-difluoropiperidin-1-yl)methanone], the pIC50 against 15-PGDH/HPGD is 6.00 to 7.00.

In turn, `O=C(O)c1ccc(-n2cc3cc(C(=O)N4CCC(F)(F)CC4)ccc3n2)cc1` [Compound D-4, 4-(5-(4,4-difluoropiperidine-1-carbonyl)-2H-indazol-2-yl) benzoic acid] had a pIC50 against 15-PGDH/HPGD of 6.00 to 7.00.

(Values after patent US20240374579A1, “BICYCLIC PGDH INHIBITORS AND METHODS OF MAKING AND USING” (EPIRIUM BIO INC., priority 2021, published 2024).)
